# pEC50: −log10 of the molar value.
# Target: T1, ΔF508 CFTR (Homo sapiens, UniProt P13569, DEL508-508)
# T1 construct: expressed in transfected cells
# Test: MQAE chloride transport assay in C127 cells expressing ΔF508 CFTR
# Type: cell-based, murine
# Conditions: for Emax: C127, plateau level in activity at high compound concentration, read-out: % of Maximal Response; for pEC50: chloride transport activity, MQAE; for % Maximal Response @ 1.25 μM: limiting concentration 1.25 μM
# Experimental: C127 cells are a murine mammary epithelial cell line obtained from ATCC (#CRL 1616, American Type Culture Collection, Manassas, Va.). C127 cells were transfected with a bovine papilloma virus-based eukaryotic expression vector containing genes for ΔF508 CFTR and neomycin resistance whose expression was driven by a metallothionein promoter. Clonal cell populations resistant to G418 and positive for staining with anti-CFTR antibody were identified.
# C127 cells expressing ΔF508 CFTR were grown in microtiter plates in DMEM (Dulbecco's Modified Eagle Medium, Hyclone, Logan, Utah) supplemented with fetal bovine serum, antibiotics, and glutamine in a 37° C., 5% CO2 atmosphere. Once confluent, the cells were loaded overnight with the disclosed compounds and a fluorescent dye sensitive to chloride ion concentration, N-(ethoxycarbonylmethyl)-6-methoxy quinolinium bromide (MQAE) (Verkman, Am. J. Physiol. 259 C375-C388 (1990)).
# The following day, cells were washed with chloride-containing buffer to remove extracellular MQAE and to quench intracellular MQAE fluorescence. Chloride buffer was flicked out and replaced with nitrate buffer with added forskolin and IBMX (isobutylmethylxanthine) to stimulate CFTR activity. […] Buffers were adjusted to pH 7.4 and contained: 10 mM HEPES (N-2-Hydroxyethylpiperazine-N′-2-ethanesulfonic acid), 2.4 mM K2HPO4, 0.6 mM KH2PO4, 1.0 mM CaSO4, 1.0 mM MgSO4, 150 mM NaCl or NaNO3, and 25 mM glucose.
# The increase in MQAE fluorescence as a function of time was followed using 360 nm excitation and 460 nm emission wavelengths. Fluorescence increased as chloride flowed out of cells through CFTR and the rate of increase in fluorescence over the first five minutes was taken as a measure of chloride transport activity.
# Cells were treated with mixtures of up to 100 compounds per well for ca. 18 hours before the assay for chloride transport activity. […] Dose-response curves were generated and compounds were ranked based on their EC50 values and maximal responses (the plateau level in activity at high compound concentration, as a percentage of the low temperature response).
# [1] = as a percentage of the low temperature response
# [2] = percentage of low temperature response, C127 ΔF508 CFTR cells
# T1 sequence (P13569 with tags, fused parts or gaps DEL508-508): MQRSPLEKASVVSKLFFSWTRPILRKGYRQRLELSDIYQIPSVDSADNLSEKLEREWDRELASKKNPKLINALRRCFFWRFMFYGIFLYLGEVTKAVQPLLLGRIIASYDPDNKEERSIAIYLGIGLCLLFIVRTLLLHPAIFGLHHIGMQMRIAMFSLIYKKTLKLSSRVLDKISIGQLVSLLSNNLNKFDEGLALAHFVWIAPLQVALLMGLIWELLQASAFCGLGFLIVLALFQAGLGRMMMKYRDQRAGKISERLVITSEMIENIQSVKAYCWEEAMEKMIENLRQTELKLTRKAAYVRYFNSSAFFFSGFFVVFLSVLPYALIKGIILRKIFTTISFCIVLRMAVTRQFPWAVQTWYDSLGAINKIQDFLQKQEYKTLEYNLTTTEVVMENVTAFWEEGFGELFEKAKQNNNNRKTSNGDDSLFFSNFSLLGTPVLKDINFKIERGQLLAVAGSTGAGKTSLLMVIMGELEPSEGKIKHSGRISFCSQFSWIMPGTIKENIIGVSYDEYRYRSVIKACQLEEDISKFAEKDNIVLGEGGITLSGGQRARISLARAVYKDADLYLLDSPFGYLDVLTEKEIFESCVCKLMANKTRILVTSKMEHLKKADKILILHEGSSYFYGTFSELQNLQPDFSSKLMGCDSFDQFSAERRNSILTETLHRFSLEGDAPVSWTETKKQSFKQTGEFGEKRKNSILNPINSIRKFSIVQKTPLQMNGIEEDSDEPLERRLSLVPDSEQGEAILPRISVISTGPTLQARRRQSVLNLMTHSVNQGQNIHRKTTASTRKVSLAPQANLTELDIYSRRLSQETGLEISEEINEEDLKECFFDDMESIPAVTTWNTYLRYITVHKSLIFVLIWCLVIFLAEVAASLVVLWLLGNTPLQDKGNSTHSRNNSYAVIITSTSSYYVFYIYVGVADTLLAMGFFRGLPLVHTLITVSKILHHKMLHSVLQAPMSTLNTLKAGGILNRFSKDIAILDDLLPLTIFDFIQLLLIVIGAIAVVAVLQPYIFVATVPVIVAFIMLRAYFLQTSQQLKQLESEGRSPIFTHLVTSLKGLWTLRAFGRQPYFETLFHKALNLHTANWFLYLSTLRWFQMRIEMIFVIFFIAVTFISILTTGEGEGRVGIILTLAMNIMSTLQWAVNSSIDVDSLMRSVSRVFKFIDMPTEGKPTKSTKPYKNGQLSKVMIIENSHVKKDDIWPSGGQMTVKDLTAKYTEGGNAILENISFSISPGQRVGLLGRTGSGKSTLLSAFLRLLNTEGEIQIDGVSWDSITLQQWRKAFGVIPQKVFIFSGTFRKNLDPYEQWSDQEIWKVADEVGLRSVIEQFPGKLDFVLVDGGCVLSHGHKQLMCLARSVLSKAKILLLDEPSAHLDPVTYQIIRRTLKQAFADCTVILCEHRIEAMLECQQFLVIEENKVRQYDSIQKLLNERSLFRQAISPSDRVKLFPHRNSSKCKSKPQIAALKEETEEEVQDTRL
SMILES,Emax [1] [%],pEC50 (C127 ΔF508 CFTR cells),% Maximal Response @ 1.25 μM [2] [%],"Percent of low-temperature response at 1.25 µM (C127, limiting concentration 1.25 μM, percentage of low temperature response, C127 ΔF508 CFTR cells, read-out: % Maximal Response @ 1.25 μM) [%]","% of Maximal Response (plateau level in activity at high compound concentration, as a percentage of the low temperature response) [%]"
O=C(Nc1ccc(Cl)cc1)C1Cc2ccccc2CN1C(=O)c1cccc(Oc2ccccc2)c1 (racemic) [Compound 1],79,–,–,–,–
Cc1ccc(Oc2cccc(C(=O)N3Cc4ccccc4CC3C(=O)Nc3ccc(Cl)cc3)c2)cc1 (racemic) [Compound 7],77,6.60,–,–,–
CC(C)(C)c1ccc(Oc2cccc(C(=O)N3Cc4ccccc4CC3C(=O)Nc3ccc(Cl)cc3)c2)cc1 (racemic) [Compound 8],95,6.55,–,–,–
"COc1ccccc1Oc1cccc(C(=O)N2Cc3ccccc3CC2C(=O)Nc2ccc(Cl)cc2)c1 (racemic) [Compound 11, (±)-2-[3-(2-Methoxyphenoxy)benzoyl]-1,2,3,4-tetrahydroisoquinoline-3-carboxylic acid(4-chlorophenyl)amide]",52,6.59,–,–,–
COc1ccc(C(=O)N2Cc3ccccc3CC2C(=O)Nc2ccc(Cl)cc2)cc1Oc1ccccc1 (racemic) [Compound 17],65,7.17,–,–,–
O=C(Nc1ccc(Cl)cc1)C1Cc2ccc(O)cc2CN1C(=O)c1cccc(Oc2ccccc2)c1 (racemic) [Compound 20],28,5.91,–,–,–
CCCCCc1ccc(NC(=O)C2Cc3c(C)cccc3CN2C(=O)c2cccc(Oc3ccccc3)c2)cc1 (racemic) [Compound 21],28,6.77,–,–,–
"O=C(Nc1ccc(Cl)cc1)C1Cc2ccccc2CN1C(=O)c1ccc2ccccc2c1 (racemic) [Compound 22, (±)-2-(Naphthalene-2-carbonyl)-1,2,3,4-tetrahydroisoquinoline-3-carboxylic acid(4-chlorophenyl)amide]",–,–,36,–,–
Cc1ccc(NC(=O)C2Cc3ccccc3CN2C(=O)c2cccc(Oc3ccccc3)c2)cc1 (racemic) [Compound 67],70,6.57,–,85,–
"O=C(NCCc1ccc(Br)cc1)C1Cc2ccccc2CN1C(=O)c1cccc(Oc2ccccc2)c1 (racemic) [Compound 73, (±)-2-(3-Phenoxybenzoyl)-1,2,3,4-tetrahydroisoquinoline-3-carboxylic acid[2-(4-bromophenyl)-ethyl]amide]",–,–,34,–,–
CCCc1ccc(NC(=O)C2Cc3ccccc3CN2C(=O)c2cccc(Oc3ccccc3)c2)cc1 (racemic) [Compound 75],82,6.57,–,–,–
O=C(Nc1ccc(C2CCCCC2)cc1)C1Cc2ccccc2CN1C(=O)c1cccc(Oc2ccccc2)c1 (racemic) [Compound 76],36,6.40,–,–,–
CCC(C)c1ccc(NC(=O)C2Cc3ccccc3CN2C(=O)c2cccc(Oc3ccccc3)c2)cc1 (racemic) [Compound 77],30,6.46,–,–,–
CC(C)c1ccc(NC(=O)C2Cc3ccccc3CN2C(=O)c2cccc(Oc3ccccc3)c2)cc1 (racemic) [Compound 78],40,6.60,–,–,–
CCc1ccc(NC(=O)C2Cc3ccccc3CN2C(=O)c2cccc(Oc3ccccc3)c2)cc1 (racemic) [Compound 79],73,6.64,–,–,–
CCOc1cccc(NC(=O)C2Cc3ccccc3CN2C(=O)c2cccc(Oc3ccccc3)c2)c1 (racemic) [Compound 83],79,6.55,–,–,–
CC(=O)N(C)c1ccc(NC(=O)C2Cc3ccccc3CN2C(=O)c2cccc(Oc3ccccc3)c2)cc1 (racemic) [Compound 85],74,7.02,–,–,–
CCCCCc1ccc(NC(=O)C2Cc3ccccc3CN2C(=O)c2cccc(Oc3ccccc3)c2)cc1 (racemic) [Compound 87],74,–,–,–,–

SMILES,Emax [1] [%],pEC50 (C127 ΔF508 CFTR cells),% Maximal Response @ 1.25 μM [2] [%],"Percent of low-temperature response at 1.25 µM (C127, limiting concentration 1.25 μM, percentage of low temperature response, C127 ΔF508 CFTR cells, read-out: % Maximal Response @ 1.25 μM) [%]","% of Maximal Response (plateau level in activity at high compound concentration, as a percentage of the low temperature response) [%]"
"CCCCCCN(C(C)=O)c1ccc(NC(=O)C2Cc3ccccc3CN2C(=O)c2cccc(Oc3ccccc3)c2)cc1 (racemic) [Compound 90, (±)-2-(3-Phenoxybenzoyl)-1,2,3,4-tetrahydroisoquinoline-3-carboxylic acid[4-(acetylhexylamino)phenyl]amide]",66,7.23,–,–,–
O=C(Nc1ccc(I)cc1)C1Cc2ccccc2CN1C(=O)c1cccc(Oc2ccccc2)c1 (racemic) [Compound 93],60,–,–,–,–
"CCCC(=O)N(C)c1ccc(NC(=O)C2Cc3ccccc3CN2C(=O)c2cccc(Oc3ccccc3)c2)cc1 (racemic) [Compound 95, (±)-2-(3-Phenoxybenzoyl)-1,2,3,4-tetrahydroisoquinoline-3-carboxylic acid[4-(butyrylmethylamino)-phenyl]amide]",80,6.82,–,–,–
O=C(Nc1cccnc1)C1Cc2ccccc2CN1C(=O)c1cccc(Oc2ccccc2)c1 (racemic) [Compound 98],55,–,–,–,–
COc1ccc(NC(=O)C2Cc3ccccc3CN2C(=O)c2cccc(Oc3ccccc3)c2)cn1 (racemic) [Compound 99],70,6.57,–,–,–
O=C(Nc1nccs1)C1Cc2ccccc2CN1C(=O)c1cccc(Oc2ccccc2)c1 (racemic) [Compound 100],59,6.37,–,–,–
CCCCN(C(C)=O)c1ccc(NC(=O)C2Cc3ccccc3CN2C(=O)c2cccc(Oc3ccccc3)c2)cc1 (racemic) [Compound 102],70,–,–,–,–
COc1ccc(C(=O)N2Cc3ccccc3CC2C(=O)Nc2ccc(Cl)nc2)cc1Oc1ccccc1 (racemic) [Compound 108],60,7.00,–,–,–
CCCCCc1ccc(NC(=O)C2Cc3ccccc3CN2C(=O)c2cccc(OCc3ccccc3)c2)cc1 (racemic) [Compound 113],91,7.16,–,–,–
"CC1c2ccccc2CN(C(=O)c2cccc(Oc3ccccc3)c2)C1C(=O)Nc1ccc(Cl)cc1 (single isomer, unassigned) [Compound 18]",59,7.06,–,–,–
"CC1c2ccccc2CN(C(=O)c2cccc(Oc3ccccc3)c2)C1C(=O)Nc1ccc(Cl)cc1 (single isomer, unassigned) [Compound 19]",–,6.82,–,–,69
"O=C(Nc1ccc(Cl)cc1)C1Cc2ccccc2CN1C(=O)c1cccc(OCc2ccccc2)c1 (single isomer, unassigned; (+)) [Compound 14, (+)-2-(3-Benzyloxybenzoyl)-1,2,3,4-tetrahydroisoquinoline-3-carboxylic acid(4-chlorophenyl)amide]",85,6.66,–,–,–
CC(=O)N(C)c1ccc(NC(=O)[C@@H]2Cc3ccccc3CN2C(=O)c2cccc(Oc3ccccc3)c2)cc1 [Compound 86],54,7.18,–,–,–
CCCCCc1ccc(NC(=O)[C@@H]2Cc3ccccc3CN2C(=O)c2cccc(Oc3ccccc3)c2)cc1 [Compound 88],76,–,–,–,–
CCCCCCN(C(C)=O)c1ccc(NC(=O)[C@@H]2Cc3ccccc3CN2C(=O)c2cccc(Oc3ccccc3)c2)cc1 [Compound 91],70,7.54,–,–,–
CCCCN(C(C)=O)c1ccc(NC(=O)[C@@H]2Cc3ccccc3CN2C(=O)c2cccc(Oc3ccccc3)c2)cc1 [Compound 103],76,–,–,–,–
"CCCCCc1ccc(NC(=O)[C@@H]2Cc3ccccc3CN2C(=O)c2cccc(Oc3ccccc3)c2)cn1 [Compound 107, (S)-2-(3-Phenoxybenzoyl)-1,2,3,4-tetrahydroisoquinoline-3-carboxylic acid(6-pentylpyridin-3-yl)amide]",54,–,–,–,–
O=C(Nc1ccc(F)cc1)[C@@H]1Cc2ccccc2CN1C(=O)c1cc(OC2CCCCC2)ccn1 [Compound 109],87,7.02,–,–,–

# — patent US7541466B2, “Tetrahydroisoquinoline derivatives for treating protein trafficking diseases” (Genzyme Corporation, priority 2003, dated 2009)
